In PMC9718795, “Caffeic acid N-[3,5-bis(trifluoromethyl)phenyl] amide as a non-steroidal inhibitor for steroid 5α-reductase type 1 using a human keratinocyte cell-based assay and molecular dynamics” (Scientific Reports, 2022):

System: SRD5A1 mRNA
Experiment: SRD5A1 mRNA level by RT-qPCR in HaCaT cells
Type: cell-based, human
Settings: 0.5, 1 and 2.5 µM; 12 h and 24 h
Experimental: HaCaT cells (2 × 10^5 cells/well in 6 well-plates) were treated with compound 4 (0, 0.5, 1 and 2.5 µM) for 12 and 24 h. Then, total RNA was extracted by using Purelink RNA mini purification kit. The isolated RNA was purified by DNase I and further used as a template for synthesis of cDNA using RevertAid First Stand cDNA Synthesis Kit. Quantitative real-time PCR (RT-qPCR) was performed with a C100 Thermal Cycler (Bio-Rad CFX384 real-time pcr system) using Luna Universal qPCR Master Mix (M3003). Specific forward and reverse primers of the interested gene was indicated as following.
The reactions were incubated for 39 cycles of 95 °C for 5 s, 60 °C for 30 s and 65 °C for 5 s. The expression of target mRNA was determined as the relative comparison via the ΔCt method. The threshold (Ct) of target genes were normalized with GAPDH (Ct) values.

O=C(C=Cc1ccc(O)c(O)c1)Nc1cc(C(F)(F)F)cc(C(F)(F)F)c1 [Compound 4, 3-(3,4-dihydroxyphenyl)-N-[3,5-bis (trifluoromethyl)phenyl]-2-propenamide]
Effect on mRNA expression of SRD5A1: did not affect
